Measurements reported in US7399587B2, “Canine CYP1A2 genetic polymorphism” (Astellas Pharma Inc., priority 2003, dated 2008).

Assay: Pharmacokinetics test in beagles after oral administration of Compound A (plasma, HPLC-FL method)
Format: in vivo, beagle
Settings: for AUC(0-inf) / Cmax / half-life: plasma, po, 0.3 mg/kg
Protocol: In this example, after oral administration of Compound A, a pharmacokinetics test was carried out, in accordance with the following procedure. In the test, a time course of changes in concentrations of the unreacted compound and metabolites was measured.
Compound A was suspended in 0.5% methyl cellulose solution, and the suspension was orally administered to 10 male beagles (0.3 mg/kg). Blood was collected from each subject after 0.25, 0.5, 1.0, 2.0, 4.0, and 8.0 hours from the administration. Plasma was extracted by liquid-liquid extraction, and then, a time course of changes in concentrations of the unreacted compound and metabolites in plasma was measured according to a simultaneous measurement method (hereinafter referred to as HPLC-FL method) using HPLC and a fluorescence detector.
Conditions in the HPLC-FL method measuring Compound A and metabolites simultaneously are shown in Table 9, and concentration gradients of mobile phases are shown in Table 10.
The beagles for the pharmacokinetics test used in this example were previously selected by carrying out a phenotype analysis. In the pharmacokinetics test, 5 dogs (type I) in which the major metabolite was MM-2, and 5 dogs (type II) in which the major metabolites were MM-1 and MM-5, were used. The time course of changes in concentrations of Compound A and metabolites thereof in plasma are shown in Table 1 (type I) and Table 2 (type II)
As pharmacokinetic parameters, time of maximum observed concentration (Tmax), concentration corresponding to Tmax (Cmax), area under the plasma concentration-time curve from the time of dosing extrapolated to infinity (AUCinf), and terminal half-life (T1/2) were calculated.

[1] = male, beagle, dog, type I (EM) beagles, n = 5, plasma after oral Compound A 0.3 mg/kg
[2] = male, beagle, dog, type II (PM) beagles, n = 5, plasma after oral Compound A 0.3 mg/kg
[3] = unreacted compound in plasma, oral 0.3 mg/kg, type II (PM) vs type I (EM) beagles

- AUC(0-inf) [1]: 2.8 ± 1.6 ng·h/mL
- Cmax [1]: 3.2 ± 1.5 ng/mL
- half-life [1]: 36 ± 12 min
- AUC(0-inf) [2]: 27.2 ± 20.2 ng·h/mL
- Cmax [2]: 24 ± 14.8 ng/mL
- half-life [2]: 48 ± 24 min
- Tmax [1]: 18 min
- AUCinf of type II relative to type I [3]: 9.7 times
- Cmax of type II relative to type I [3]: 7.5 times
Compound: CCn1c(=O)nc(C2CCCCC2)c2ccc(C)nc21 [Compound A, 4-cyclohexyl-1-ethyl-7-methylpyrido[2,3-d]pyrimidin-2(1H)-one]
